The subject of the assay is Phytophthora infestans. It counts as in vivo. The conditions noted are these: tomato leaves infected next day with zoospore suspension, evaluated after 6 days, untreated control 89% infection.
Setting [1] is: conc. in the spray liquor 0.06 ppm.
Setting [2] is: conc. in the spray liquor 0.25 ppm.

Where two headings read alike, the source gives them in different places.

In the case of `COC(=O)N(OC)c1ccccc1COc1ccn(-c2ccc(C)cc2)n1` [Compound I.38], the “Efficacy in % of the untreated control” value is, setting by setting: under setting [1], 0%; under setting [2], 33%. On to `CC(C)OC(=O)NC(C(=O)NC(C)c1nc2ccc(F)cc2s1)C(C)C` (centres unmarked) [Compound IV/1], for which the “Efficacy in % of the untreated control” value under setting [1] is recorded as 21%. Turning to `COC(=O)N(OC)c1ccccc1COc1ccn(-c2ccc(Cl)cc2)n1` [Compound I.32], the “Efficacy in % of the untreated control” value came to 10% under setting [1] and 55% under setting [2].

`CNC(=O)C(=NOC)c1ccccc1COc1cc(C)ccc1C` [Compound III]: the “Efficacy in % of the untreated control” value is, setting by setting: under setting [1], 0%; under setting [2], 33%.

With `CON=C(C(=O)OC)c1ccccc1COc1ccccc1C` [Compound II], under setting [1], the “Efficacy in % of the untreated control” value turned out to be 10%.

Values taken from US6436979B1 (priority 2000, dated 2002).
